Test results reported in patent publication US20030207792A1, “Treating cancer” (priority 2002, published 2003).
Read-outs that look alike come from different tables or passages of the source.

What was measured:
Type in all cases: cell-based
[1] = test system: pRb; experiment: Western blot analysis of pRb level in HCT116 cells 48 h after oligonucleotide transfection; conditions: oligonucleotide 1 μM with lipofectin 19 μg/ml, extracts after 48 h, Western blot band intensity
Protocol: (§1) Sense and antisense phosphorothionate oligonucleotide with the sequence set out in SEQ1 and SEQ2 respectively were synthesised in a 380B DNA synthesiser. Each oligonucleotide was premixed with lipofectin reagent and diluted in DMEM (Gibco). 6 cm plates of HCT116 cells at 40-50% confluence were rinsed once with 4 ml serum free DMEM and transfected with the oligonucleotides at a final concentration of 1 μM and the lipofectin reagent at a final concentration of 19 μg/ml according to the manufacturer's instructions (Life Technologies Inc., Gaithersburg, Md.). After 4 hours, Foetal Calf Serum (Gibco) was added to a final concentration of 10%. A lipofectin only transfection was performed as a control. Cell extracts were harvested after 48 h and examined by Western blot analysis with a pRb antibody. Equal loading of protein samples was confirmed by Coomassie blue staining or by immunoreactivity with an anti-actin antibody (Sigma). The intensities of the Rb bands were quantised with an image scanner (Molecular Dynamics). […] The treatment with the sense oligonucleotide led to about a 5% reduction in the level of pRb. […] Apoptosis in the cultures 48 h after transfection was tested for using the TUNEL assay. An in situ apoptosis detection kit ApopTag (Oncor, Gaithersburg, Md.) was used as recommended by the manufacturer. […]

[2] = test system: HCT116 cells; experiment: Growth curves of transfected HCT116 cultures; conditions: oligonucleotide 1 μM with lipofectin
Protocol: as §1

[3] = test system: HCT116 cells; experiment: TUNEL assay (ApopTag) for apoptosis 48 h after transfection
Protocol: Sense and antisense phosphorothionate oligonucleotide with the sequence set out in SEQ1 and SEQ2 respectively were synthesised in a 380B DNA synthesiser. Each oligonucleotide was premixed with lipofectin reagent and diluted in DMEM (Gibco). 6 cm plates of HCT116 cells at 40-50% confluence were rinsed once with 4 ml serum free DMEM and transfected with the oligonucleotides at a final concentration of 1 μM and the lipofectin reagent at a final concentration of 19 μg/ml according to the manufacturer's instructions (Life Technologies Inc., Gaithersburg, Md.). After 4 hours, Foetal Calf Serum (Gibco) was added to a final concentration of 10%. A lipofectin only transfection was performed as a control. Cell extracts were harvested after 48 h and examined by Western blot analysis with a pRb antibody. Equal loading of protein samples was confirmed by Coomassie blue staining or by immunoreactivity with an anti-actin antibody (Sigma). The intensities of the Rb bands were quantised with an image scanner (Molecular Dynamics). […] The treatment with the sense oligonucleotide led to about a 5% reduction in the level of pRb. […] Apoptosis in the cultures 48 h after transfection was tested for using the TUNEL assay. An in situ apoptosis detection kit ApopTag (Oncor, Gaithersburg, Md.) was used as recommended by the manufacturer. The percentage of TUNEL positive cells was 1.5+/−1% for the lipofectin treated culture, 3+/−0.5% for the culture transfected with the sense oligonucleotide and 18+/−0.5% for the culture transfected with the antisense oligonucleotide. Thus, the sense oligonucleotide caused about a two-fold increase in apoptosis, but the antisense oligonucleotide caused over a 10-fold increase in apoptosis. As the antisense oligonucleotide inhibits growth and increases apoptosis, it is thus an effective chemotherapeutic agent.

For “5′-GGTTTTGGGCGGCATGAC-3′ (DNA, all phosphorothioate, methylation of C not given here) [antisense oligonucleotide]”, the “level of pRb expression relative to the control culture treated only with lipofectin” value [1] was “about 30%”, the “effect on growth (growth curves) compared with the lipofectin-treated control culture” value [2] was “displayed growth inhibition” and the “percentage of TUNEL positive cells” value ([3]; HCT116 cells, 48 h after transfection, oligonucleotide 1 μM) was 18+/−0.5%. For the same substance, the “fold increase in apoptosis” value ([3]; HCT116 cells, 48 h after transfection, versus lipofectin treated culture) was over 10 fold.

In the case of “5′-GTCATGCCGCCCAAAACC-3′ (phosphorothioate, further chemistry not given here) [sense oligonucleotide, reference compound]”, the “fold increase in apoptosis” value [3] is reported as “two-fold”.
